{"source": "patent US9822373B2", "about": "“Mutant cells for protein secretion and lignocellulose degradation” (The Regents of the University of California, priority 2011, dated 2017)", "system": "Neurospora crassa", "test": "Total Avicelase activity of bioreactor culture supernatant", "format": "cell-based", "conditions": "supernatant of the 24-hour induction time point", "procedure": "Cellulase production was carried out in a 3.7 L bioreactor (BioEngineering AG) at an operating volume of 1 L. The bioreactor was equipped with one 48 mm Rushton impeller and four equally spaced baffles to provide adequate mixing. Impeller speed was controlled at 200 rpm for 8 hours to allow spore germination followed by 500 rpm for the remainder of the experiment. The temperature was maintained at 25° C., and medium pH was controlled at 5.5 using 40% phosphoric acid and 1:5 diluted ammonium hydroxide. The dissolved oxygen was maintained at a level greater than 20% of the saturation value of the medium by varying the aeration rate between 0.5 and 3 VVM in response to the dissolved oxygen tension. Minimal growth medium with 1% w/v sucrose as the sole carbon source (unless otherwise noted) was inoculated with 10^9 conidia. After 24 hours initial growth, cellulase production was induced with either cellobiose or Avicel® added to a final concentration of 0.2% w/v. […]\nSucrose, fructose, glucose and cellobiose were measured on a DIONEX ICS-3000 HPLC (Dionex Corp., Sunnyvale, Calif.) using a CarboPac PA20 Analytical Column (3×150 mm) and a CarboPac PA20 guard column (3×30 mm) at 30° C. […] Sugars were detected using PAD, Four-Potential Carbohydrate Waveform and Peaks were analyzed using the Chromeleon software package.", "data": [{"smiles": "O=C[C@H](O)[C@@H](O)[C@H](O[C@@H]1O[C@H](CO)[C@@H](O)[C@H](O)[C@H]1O)[C@H](O)CO", "note": "[cellobiose]", "values": [{"measurement": "aggregate Avicelase activity, glucose equivalents", "setting": "Δ3βG strain", "result": 0.296, "unit": "mg/mL"}, {"measurement": "aggregate Avicelase activity, glucose equivalents", "setting": "Δ3βGΔcre strain", "result": 0.424, "unit": "mg/mL"}]}]}
